Key:
Fkbp51 = system: Fkbp51; design: species or system mice; conditions: mouse, in vivo
[1] = system: IL-6, CXCL10, IFN-γ and TNFα; design: species or system mice; conditions: mouse, in vivo
RABV CVS-NIV = system: RABV CVS-NIV; design: species or system C57BL/6J mice; conditions: mouse, in vivo
nNOS = system: nNOS; design: species or system mice; conditions: mouse, in vivo
RABV [2] = system: RABV; design: species or system mice; conditions: mouse, in vivo
[3] = system: STAT3, STAT3-P, ERK1/2, phosphorylated-ERK1/2 (Thr202/Tyr204); design: species or system mice; conditions: mouse, in vivo
[4] = mouse, in vivo
splenocytes subsets = system: splenocytes subsets; design: species or system mice; conditions: mouse, in vivo
RABV [5] = system: RABV; design: species or system mice; conditions: mouse, in vivo; remark: listed apart in the source
[6] = system: thymocytes and splenocytes; design: species or system mice; conditions: mouse, in vivo

SMILES: CNC1(C)C2CCC(C2)C1(C)C (stereo not drawn) [mecamylamine, N,2,3,3-Tetramethylbicyclo[2.2.1] heptan-2 amine]
- transcription of the glucocorticoid-inducible gene Fkbp51 (Fkbp51): no effect
- IFN-γ and TNFα transcription in the spinal cord [1]: slowed-down
- IL6 or CXCL10 kinetic in the spinal cord [1]: no effect
- cytokines expression at transcriptional level (IL-6, CXCL10, IFN-γ, TNFα) in the brain [1]: did not modify significantly
- inflammatory cytokines expression in the liver [1]: No difference
- RABV pathogenesis (RABV CVS-NIV): did not modify RABV pathogenesis
- clinical scores (RABV CVS-NIV): decreases the severity of the clinical scores
- weight loss (RABV CVS-NIV): interrupted the weight loss
- nNOS transcription in the brain (nNOS): block the nNOS decrease
- RABV N protein transcripts among survivors (RABV [2]): less viral transcripts than the mock-treated animals
- expression and phosphorylation of STAT3 and ERK1/2 in the brain [3]: reduces expression and phosphorylation of STAT3 and ERK1/2 to levels similar to those observed in the non-infected brain
- side effects such as weight loss or behavior modification [4]: does not induced obvious side effects
- main subsets of spleen cells (TCRαβ, CMH class II, CD4, CD8, plasmocytes expressing IgG) (splenocytes subsets): prevents the RABV-mediated disappearance
- numbers of CD4 T cells expressing CD25 and numbers of CD3 expressing CD69 (splenocytes subsets): restored
- effect on RABV specific neutralizing antibodies (RABV [5]): no effect
- number of splenocytes [6]: increased the number of splenocytes
- cellularity of the spleen (number of splenocytes) ([6]; ip, 2 mg/kg): protects cellularity of the spleen
- number of thymocytes (RABV-mediated drop) ([6]; ip, 2 mg/kg): no effect on the drop of thymocytes

— patent EP2535046A1 (priority 2011, dated 2012)
